Results reported in US20230331673A1, “COMPOSITION OF COMPOUNDS THAT MODULATE CELL METABOLISM AND METHODS OF USE” (CRESCENTA BIOSCIENCES, priority 2020, published 2023).

What follows are compounds tested on differentiated 3T3-L1 mouse adipocyte cells (assay: Adipocyte glucose consumption in differentiated 3T3-L1 mouse adipocyte cells (loss of glucose from medium, colorimetric)). Details: compound 10 μM, 22 to 24 hours, differentiated 3T3-L1 adipocytes, compound/DMSO, read-out: Glucose consumption (fold change) Mean.
Type: cell-based
Procedure: Activity of compounds on adipocyte glucose consumption was tested in differentiated 3T3-L1 mouse adipocyte cells. 3T3-L1 preadipocytes (ATCC) were routinely cultured in a growth medium composed of DMEM high-glucose (Sigma), 10% FBS (Gibco), 10 U/ml penicillin and 10 μg/ml streptomycin (P/S; Gibco). To induce adipogenic differentiation, a confluent layer of 3T3-L1 cells were incubated with the growth medium containing 2 μM rosiglitazone, 1 μM dexamethasone, 500 μM IBMX, and 1 μg/ml insulin (Sigma). Forty-eight (48) hours later (on day 2) and on days 4 and 6, medium of the cells was replaced with fresh medium containing 1 μg/ml insulin. On days 8 and 10, the medium was refreshed with regular growth medium and addition of insulin was omitted. On day 11 or 12, medium of the cells were replaced with fresh medium containing either the indicated compounds (10 μM) or the vehicle in which the compounds were dissolved (DMSO). The final concentration of DMSO was 0.1% (v/v). Growth medium containing 0.1% DMSO was incubated in culture wells containing no cells and used as control. Twenty-two to 24 hours later, medium was harvested and subjected to centrifugation at 10,000 g for 5 min. Glucose concentration in the supernatants was determined using a colorimetric assay (Glucose Assay Kit I, Eton Biosciences). Glucose consumption in compound and vehicle treated cells was measured as loss of glucose from the culture medium and represented as mean fold change (compound/DMSO) t standard deviation (SD).

| SMILES | fold induction at 10 µM |
| --- | --- |
| CCCCCCC1CCCc2c(n(Cc3cccc(C#N)c3F)c3c(C(=O)O)cccc23)C1 (stereo not drawn) [5-[(3-cyano-2-fluorophenyl)methyl]-7-hexyl-5H,6H,7H,8H,9H,10H-cyclohepta[b]indole-4-carboxylic acid] | 1.36 |
| CCCCCCC1CCCc2c(n(Cc3cccc(C#N)c3)c3c(C(=O)O)cc(F)cc23)C1 (stereo not drawn) [5-[(3-cyanophenyl)methyl]-2-fluoro-7-hexyl-5H,6H,7H,8H,9H,10H-cyclohepta[b]indole-4-carboxylic acid] | 1.33 |
| N#Cc1cccc(Cn2c3c(c4cccc(C(=O)O)c42)CCCC(CCc2ccccc2)C3)c1 (stereo not drawn) [5-[(3-cyanophenyl)methyl]-7-(2-phenylethyl)-5H,6H,7H,8H,9H,10H-cyclohepta[b]indole-4-carboxylic acid] | 1.02 |
| CCC1CCCc2c(n(Cc3cccc(C#N)c3)c3c(C(=O)O)cccc23)C1 (stereo not drawn) [5-[(3-cyanophenyl)methyl]-7-ethyl-5H,6H,7H,8H,9H,10H-cyclohepta[b]indole-4-carboxylic acid] | 1.16 |
| CCCCCCC1CCCc2c(n(Cc3cccc(C#N)c3)c3c(C(=O)O)cccc23)C1 (stereo not drawn) [5-[(3-cyanophenyl)methyl]-7-hexyl-5H,6H,7H,8H,9H,10H-cyclohepta[b]indole-4-carboxylic acid] | 1.26 |
| CCCCCCCCC1CCCc2c(n(Cc3cccc(C#N)c3)c3c(C(=O)O)cccc23)C1 (stereo not drawn) [5-[(3-cyanophenyl)methyl]-7-octyl-5H,6H,7H,8H,9H,10H-cyclohepta[b]indole-4-carboxylic acid] | 1.12 |
| CCCCCC1CCCc2c(n(Cc3cccc(C#N)c3)c3c(C(=O)O)cccc23)C1 (stereo not drawn) [5-[(3-cyanophenyl)methyl]-7-pentyl-5H,6H,7H,8H,9H,10H-cyclohepta[b]indole-4-carboxylic acid] | 1.35 |
| CCC1CCCCc2c1c1cccc(C(=O)O)c1n2Cc1cccc(C#N)c1 (stereo not drawn) [5-[(3-cyanophenyl)methyl]-10-ethyl-5H,6H,7H,8H,9H,10H-cyclohepta[b]indole-4-carboxylic acid] | 1.15 |
| CCCCCC1CCCCc2c1c1cccc(C(=O)O)c1n2Cc1cccc(C#N)c1 (stereo not drawn) [5-[(3-cyanophenyl)methyl]-10-pentyl-5H,6H,7H,8H,9H,10H-cyclohepta[b]indole-4-carboxylic acid] | 1.2 |
| CCCC1CCCCc2c1c1cccc(C(=O)O)c1n2Cc1cccc(C#N)c1 (stereo not drawn) [5-[(3-cyanophenyl)methyl]-10-propyl-5H,6H,7H,8H,9H,10H-cyclohepta[b]indole-4-carboxylic acid] | 1.18 |
| CCCCCCC1CCCc2c(n(Cc3cccc(F)c3)c3c(C(=O)O)cccc23)C1 (stereo not drawn) [5-[(3-fluorophenyl)methyl]-7-hexyl-5H,6H,7H,8H,9H,10H-cyclohepta[b]indole-4-carboxylic acid] | 1.14 |
| CCCCCCC1CCCc2c(n(Cc3ccc(C(N)=O)cc3)c3c(C(=O)O)cccc23)C1 (stereo not drawn) [5-[(4-carbamoylphenyl)methyl]-7-hexyl-5H,6H,7H,8H,9H,10H-cyclohepta[b]indole-4-carboxylic acid] | 1.05 |
| CCCCCCC1CCCc2c(n(Cc3ccc(C#N)cc3)c3c(C(=O)O)cccc23)C1 (stereo not drawn) [5-[(4-cyanophenyl)methyl]-7-hexyl-5H,6H,7H,8H,9H,10H-cyclohepta[b]indole-4-carboxylic acid] | 0.94 |
| CCCCCCC1CCCc2c(n(Cc3ccc(F)cc3)c3c(C(=O)O)cccc23)C1 (stereo not drawn) [5-[(4-fluorophenyl)methyl]-7-hexyl-5H,6H,7H,8H,9H,10H-cyclohepta[b]indole-4-carboxylic acid] | 1.17 |
| CCCCCCC1CCCc2c(n(Cc3ccc(C#N)o3)c3c(C(=O)O)cccc23)C1 (stereo not drawn) [5-[(5-cyanofuran-2-yl)methyl]-7-hexyl-5H,6H,7H,8H,9H,10H-cyclohepta[b]indole-4-carboxylic acid] | 1.29 |
| CCCCCCC1CCCc2c(n(Cc3cncc(C#N)c3)c3c(C(=O)O)cccc23)C1 (stereo not drawn) [5-[(5-cyanopyridin-3-yl)methyl]-7-hexyl-5H,6H,7H,8H,9H,10H-cyclohepta[b]indole-4-carboxylic acid] | 1.06 |
| CCCCCCC1CCCc2c(n(Cc3ccc(C#N)s3)c3c(C(=O)O)cccc23)C1 (stereo not drawn) [5-[(5-cyanothiophen-2-yl)methyl]-7-hexyl-5H,6H,7H,8H,9H,10H-cyclohepta[b]indole-4-carboxylic acid] | 1.05 |
| CCCCCCC1CCCc2c(n(Cc3csc(C#N)c3)c3c(C(=O)O)cccc23)C1 (stereo not drawn) [5-[(5-cyanothiophen-3-yl)methyl]-7-hexyl-5H,6H,7H,8H,9H,10H-cyclohepta[b]indole-4-carboxylic acid] | 1.2 |

| SMILES | fold induction at 10 µM |
| --- | --- |
| CCCCCCC1CCCc2c(n(Cc3cccc(C(N)=O)n3)c3c(C(=O)O)cccc23)C1 (stereo not drawn) [5-[(6-carbamoylpyridin-2-yl)methyl]-7-hexyl-5H,6H,7H,8H,9H,10H-cyclohepta[b]indole-4-carboxylic acid] | 1.23 |
| CCCCCCC1CCCc2c(n(Cc3cccc(C#N)n3)c3c(C(=O)O)cccc23)C1 (stereo not drawn) [5-[(6-cyanopyridin-2-yl)methyl]-7-hexyl-5H,6H,7H,8H,9H,10H-cyclohepta[b]indole-4-carboxylic acid] | 1.28 |
| CCCCCCC1CCCc2c(n(Cc3cccc(F)n3)c3c(C(=O)O)cccc23)C1 (stereo not drawn) [5-[(6-fluoropyridin-2-yl)methyl]-7-hexyl-5H,6H,7H,8H,9H,10H-cyclohepta[b]indole-4-carboxylic acid] | 1.25 |
| CCCCCCC1CCCc2c(n(Cc3cccc(C(=O)O)n3)c3c(C(=O)O)cccc23)C1 (stereo not drawn) [6-({4-carboxy-7-hexyl-5H,6H,7H,8H,9H,10H-cyclohepta[b]indol-5-yl}methyl)pyridine-2-carboxylic acid] | 0.96 |
| CCCCC1CCCCc2c1n(Cc1cccc(C(N)=O)c1)c1c(C(=O)O)cccc21 (stereo not drawn) [6-butyl-5-[(3-carbamoylphenyl)methyl]-5H,6H,7H,8H,9H,10H-cyclohepta[b]indole-4-carboxylic acid] | 1.03 |
| CCCCC1CCCCc2c1n(Cc1cccc(C#N)c1)c1c(C(=O)O)cccc21 (stereo not drawn) [6-butyl-5-[(3-cyanophenyl)methyl]-5H,6H,7H,8H,9H,10H-cyclohepta[b]indole-4-carboxylic acid] | 1.16 |
| CCCCC1CCCc2c(n(Cc3ccccc3C(N)=O)c3c(C(=O)O)cccc23)C1 (stereo not drawn) [7-butyl-5-[(2-carbamoylphenyl)methyl]-5H,6H,7H,8H,9H,10H-cyclohepta[b]indole-4-carboxylic acid] | 1.11 |
| CCCCC1CCCc2c(n(Cc3ccccc3C#N)c3c(C(=O)O)cccc23)C1 (stereo not drawn) [7-butyl-5-[(2-cyanophenyl)methyl]-5H,6H,7H,8H,9H,10H-cyclohepta[b]indole-4-carboxylic acid] | 1.1 |
| CCCCC1CCCc2c(n(Cc3ccccc3F)c3c(C(=O)O)cccc23)C1 (stereo not drawn) [7-butyl-5-[(2-fluorophenyl)methyl]-5H,6H,7H,8H,9H,10H-cyclohepta[b]indole-4-carboxylic acid] | 1.11 |
| CCCCC1CCCc2c(n(Cc3ccccc3C)c3c(C(=O)O)cccc23)C1 (stereo not drawn) [7-butyl-5-[(2-methylphenyl)methyl]-5H,6H,7H,8H,9H,10H-cyclohepta[b]indole-4-carboxylic acid] | 1.12 |
| CCCCC1CCCc2c(n(Cc3cccc(C(N)=O)c3)c3c(C(=O)O)cccc23)C1 (stereo not drawn) [7-butyl-5-[(3-carbamoylphenyl)methyl]-5H,6H,7H,8H,9H,10H-cyclohepta[b]indole-4-carboxylic acid] | 1.12 |
| CCCCC1CCCc2c(n(Cc3cccc(C(N)=O)c3)c3c(C(=O)NCCO)cccc23)C1 (stereo not drawn) [7-butyl-5-[(3-carbamoylphenyl)methyl]-N-(2-hydroxyethyl)-5H,6H,7H,8H,9H,10H-cyclohepta[b]indole-4-carboxamide] | 0.98 |
| CCCCC1CCCc2c(n(Cc3cccc(C(=O)O)c3)c3c(C(=O)O)cccc23)C1 (stereo not drawn) [7-butyl-5-[(3-carboxyphenyl)methyl]-5H,6H,7H,8H,9H,10H-cyclohepta[b]indole-4-carboxylic acid] | 0.95 |
| CCCCC1CCCc2c(n(Cc3cccc(Cl)c3)c3c(C(=O)O)cccc23)C1 (stereo not drawn) [7-butyl-5-[(3-chlorophenyl)methyl]-5H,6H,7H,8H,9H,10H-cyclohepta[b]indole-4-carboxylic acid] | 1.18 |
| CCCCC1CCCc2c(n(Cc3cccc(C#N)c3)c3c(C(=O)O)cccc23)C1 (stereo not drawn) [7-butyl-5-[(3-cyanophenyl)methyl]-5H,6H,7H,8H,9H,10H-cyclohepta[b]indole-4-carboxylic acid] | 1.29 |
| CCCCC1CCCc2c(n(Cc3cccc(C#N)c3)c3c(C(=O)NCCO)cccc23)C1 (stereo not drawn) [7-butyl-5-[(3-cyanophenyl)methyl]-N-(2-hydroxyethyl)-5H,6H,7H,8H,9H,10H-cyclohepta[b]indole-4-carboxamide] | 1.08 |
| CCCCC1CCCc2c(n(Cc3cccc(F)c3)c3c(C(=O)O)cccc23)C1 (stereo not drawn) [7-butyl-5-[(3-fluorophenyl)methyl]-5H,6H,7H,8H,9H,10H-cyclohepta[b]indole-4-carboxylic acid] | 1.12 |
| CCCCC1CCCc2c(n(Cc3cccc(O)c3)c3c(C(=O)O)cccc23)C1 (stereo not drawn) [7-butyl-5-[(3-hydroxyphenyl)methyl]-5H,6H,7H,8H,9H,10H-cyclohepta[b]indole-4-carboxylic acid] | 1.14 |
